Laboratory results: patent publication US20100105655A1, “NOVEL COMPOUNDS 515” (ASTRAZENECA AB, priority 2008, published 2010)

The compounds below were run against T1, IGFR kinase (Homo sapiens, UniProt P08069) (assay: Enzyme assay (c), IGFR kinase, Caliper LabChip). Conditions: 30 nM IGFR kinase, 6 uM ATP, 3 uM peptide mix; read-out: IGFR IC50.
T1 construct: purchased Millipore
T1 sequence (P08069 31-1367): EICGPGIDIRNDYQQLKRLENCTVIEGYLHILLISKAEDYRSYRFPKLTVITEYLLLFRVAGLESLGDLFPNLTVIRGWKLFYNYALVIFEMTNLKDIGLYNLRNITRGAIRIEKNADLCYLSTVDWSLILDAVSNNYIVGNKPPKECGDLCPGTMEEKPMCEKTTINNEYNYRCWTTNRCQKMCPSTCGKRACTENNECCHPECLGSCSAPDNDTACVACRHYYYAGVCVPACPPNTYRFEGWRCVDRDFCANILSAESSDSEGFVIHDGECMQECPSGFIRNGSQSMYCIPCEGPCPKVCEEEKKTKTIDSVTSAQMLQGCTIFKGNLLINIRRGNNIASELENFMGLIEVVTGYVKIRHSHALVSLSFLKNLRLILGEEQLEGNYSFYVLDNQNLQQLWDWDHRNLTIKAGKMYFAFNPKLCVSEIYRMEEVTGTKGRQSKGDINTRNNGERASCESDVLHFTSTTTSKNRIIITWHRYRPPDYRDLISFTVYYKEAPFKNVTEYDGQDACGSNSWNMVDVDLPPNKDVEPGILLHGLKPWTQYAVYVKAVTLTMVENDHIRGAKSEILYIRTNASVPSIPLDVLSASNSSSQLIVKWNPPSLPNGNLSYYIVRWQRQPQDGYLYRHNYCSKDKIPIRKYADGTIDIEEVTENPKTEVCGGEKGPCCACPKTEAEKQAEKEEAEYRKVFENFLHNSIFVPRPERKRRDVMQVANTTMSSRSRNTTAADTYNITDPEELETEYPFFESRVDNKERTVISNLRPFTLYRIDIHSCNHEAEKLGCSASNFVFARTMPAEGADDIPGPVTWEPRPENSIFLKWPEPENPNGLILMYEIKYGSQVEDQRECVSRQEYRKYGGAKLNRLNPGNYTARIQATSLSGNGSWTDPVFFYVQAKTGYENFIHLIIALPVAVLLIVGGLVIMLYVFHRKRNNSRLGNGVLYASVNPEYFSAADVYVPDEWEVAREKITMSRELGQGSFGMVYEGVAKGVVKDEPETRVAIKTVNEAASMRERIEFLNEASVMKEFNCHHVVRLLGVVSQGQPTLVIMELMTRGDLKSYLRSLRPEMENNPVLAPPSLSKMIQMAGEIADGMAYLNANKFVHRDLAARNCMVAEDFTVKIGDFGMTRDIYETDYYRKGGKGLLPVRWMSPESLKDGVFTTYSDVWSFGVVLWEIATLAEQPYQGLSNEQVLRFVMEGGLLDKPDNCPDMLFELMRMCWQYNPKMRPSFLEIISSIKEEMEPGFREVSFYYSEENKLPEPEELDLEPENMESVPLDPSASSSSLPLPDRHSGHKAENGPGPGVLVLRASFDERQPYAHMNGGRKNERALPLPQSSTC
Assay type: biochemical
In the case of COc1cc(N2CCOCC2)ccc1Nc1ncc(F)c(-c2cnc3ccccn23)n1 [Example 79, 5-fluoro-4-imidazo[1,2-a]pyridin-3-yl-N-(2-methoxy-4-morpholino-phenyl)pyrimidin-2-amine], the IC50 is reported as 56 nM. COc1cc(N2CCN(CCO)CC2)ccc1Nc1ncc(Cl)c(-c2cnc3ccc(F)cn23)n1 [Example 263, 2-[4-[4-[[5-chloro-4-(6-fluoroimidazo[1,2-a]pyridin-3-yl)pyrimidin-2-yl]amino]-3-methoxy-phenyl]piperazin-1-yl]ethanol] was tested, and the IC50 was 7 nM. For COc1cc(C(CO)CO)ccc1Nc1ncc(Cl)c(-c2cnn3ccccc23)n1 [Example 148, 2-[4-[(5-chloro-4-pyrazolo[1,5-a]pyridin-3-yl-pyrimidin-2-yl)amino]-3-methoxy-phenyl]propane-1,3-diol], the IC50 was 17 nM. COc1cc(N2CCN(CCO)CC2)ccc1Nc1ncc(Cl)c(-c2cnc3c(F)cccn23)n1 [Example 194, 2-[4-[4-[[5-chloro-4-(8-fluoroimidazo[1,2-a]pyridin-3-yl)pyrimidin-2-yl]amino]-3-methoxy-phenyl]piperazin-1-yl]ethanol] gave an IC50 of 15 nM. Compound COc1cc(C2CN(C(=O)[C@@H](C)O)C2)ccc1Nc1ncc(Cl)c(-c2cnn3ccccc23)n1 [Example 135B] has an IC50 of 8 nM. COc1cc(CNCCO)ccc1Nc1ncc(Cl)c(-c2cnc3ccccn23)n1 [Example 21.1, 2-[[4-[(5-chloro-4-imidazo[1,2-a]pyridin-3-yl-pyrimidin-2-yl)amino]-3-methoxy-phenyl]methylamino]ethanol] was tested, and the IC50 was 19 nM. COc1cc(N2CCNCC2=O)ccc1Nc1ncc(Cl)c(-c2cnc3c(F)cccn23)n1 [Example 224, 1-[4-[[5-chloro-4-(8-fluoroimidazo[1,2-a]pyridin-3-yl)pyrimidin-2-yl]amino]-3-methoxy-phenyl]piperazin-2-one] gave an IC50 of 3 nM. CNCC(=O)N1CCC(c2ccc(Nc3ncc(C)c(-c4cnn5ccccc45)n3)c(OC)c2)CC1 [Example 237, 1-[4-[3-methoxy-4-[(5-methyl-4-pyrazolo[1,5-a]pyridin-3-yl-pyrimidin-2-yl)amino]phenyl]-1-piperidyl]-2-(methylamino)ethanone] was tested, and the IC50 was 8 nM. Work on COCCN1CCN(c2ccc(Nc3ncc(Cl)c(-c4cnc5ccccn45)n3)c(OC)c2)CC1 [Example 3.46, 5-chloro-4-imidazo[1,2-a]pyridin-3-yl-N-[2-methoxy-4-[4-(2-methoxyethyl)piperazin-1-yl]phenyl]pyrimidin-2-amine] yielded an IC50 of 6 nM. COc1cc(O[C@@H]2CCN(C(=O)[C@H](C)O)C2)ccc1Nc1ncc(Cl)c(-c2cnc3ccccn23)n1 [Example 12A, (2S)-1-[(3R)-3-[4-[(5-chloro-4-imidazo[1,2-a]pyridin-3-yl-pyrimidin-2-yl)amino]-3-methoxy-phenoxy]pyrrolidin-1-yl]-2-hydroxy-propan-1-one] was tested, and the IC50 was 13 nM. Compound COc1cc(N2CCN(C(C)=O)CC2)ccc1Nc1ncc(Cl)c(-c2cnc3cc(CN4CCOCC4)ccn23)n1 [Example 187, 1-[4-[4-[[5-chloro-4-[7-(morpholinomethyl)imidazo[1,2-a]pyridin-3-yl]pyrimidin-2-yl]amino]-3-methoxy-phenyl]piperazin-1-yl]ethanone] has an IC50 of 43 nM. Compound COc1cc(N2CCCOCC2)ccc1Nc1ncc(Cl)c(-c2cnc3ccccn23)n1 [Example 3.48, 5-chloro-4-imidazo[1,2-a]pyridin-3-yl-N-[2-methoxy-4-(1,4-oxazepan-4-yl)phenyl]pyrimidin-2-amine] has an IC50 of 25 nM. With COc1cc(C2CCNCC2)ccc1Nc1ncc(F)c(-c2cnn3ccccc23)n1 [Example 173, 5-fluoro-N-[2-methoxy-4-(4-piperidyl)phenyl]-4-pyrazolo[1,5-a]pyridin-3-yl-pyrimidin-2-amine] the IC50 was 10 nM. With COc1cc(N2CCN(C[C@H](O)CO)CC2)ccc1Nc1ncc(C)c(-c2cnc3ccccn23)n1 [Example 268, (2S)-3-[4-[4-[(4-imidazo[1,2-a]pyridin-3-yl-5-methyl-pyrimidin-2-yl)amino]-3-methoxy-phenyl]piperazin-1-yl]propane-1,2-diol] the IC50 was 23 nM. For COc1cc(N(C)CCN(C)CCO)ccc1Nc1ncc(Cl)c(-c2cnc3c(F)cccn23)n1 [Example 221, 2-[2-[4-[[5-chloro-4-(8-fluoroimidazo[1,2-a]pyridin-3-yl)pyrimidin-2-yl]amino]-3-methoxy-N-methyl-anilino]ethyl-methyl-amino]ethanol], the IC50 was 10 nM. With COc1cc(C(=O)N2C[C@@H]3C[C@H]2CN3)ccc1Nc1ncc(Cl)c(-c2cnc3ccccn23)n1 [Example 29, [4-[(5-chloro-4-imidazo[1,2-a]pyridin-3-yl-pyrimidin-2-yl)amino]-3-methoxy-phenyl]-[(1S,4S)-2,5-diazabicyclo[2.2.1]heptan-5-yl]methanone] the IC50 was 17 nM. Compound COc1cc(N2CC[C@@H](N)C2)ccc1Nc1ncc(Cl)c(-c2cnc3ccccn23)n1 [Example 71, N-[4-[(3R)-3-aminopyrrolidin-1-yl]-2-methoxy-phenyl]-5-chloro-4-imidazo[1,2-a]pyridin-3-yl-pyrimidin-2-amine] has an IC50 of 10 nM. COc1cc(O[C@@H]2CCN(C(=O)C(C)O)C2)ccc1Nc1ncc(Cl)c(-c2cnc3ccccn23)n1 (mixture of isomers) [Example 12, 1-[(3R)-3-[4-[(5-chloro-4-imidazo[1,2-a]pyridin-3-yl-pyrimidin-2-yl)amino]-3-methoxy-phenoxy]pyrrolidin-1-yl]-2-hydroxy-propan-1-one] showed an IC50 of 22 nM. CNCC(=O)N1CCN(c2ccc(Nc3ncc(Cl)c(-c4cnn5ccccc45)n3)c(OC)c2)CC1 [Example 133, 1-[4-[4-[(5-chloro-4-pyrazolo[1,5-a]pyridin-3-yl-pyrimidin-2-yl)amino]-3-methoxy-phenyl]piperazin-1-yl]-2-methylamino-ethanone] showed an IC50 of 3 nM. In the case of COc1cc(N2CCN(C(CO)CO)CC2)ccc1Nc1ncc(C)c(-c2cnc3ccccn23)n1 [Example 269, 2-[4-[4-[(4-imidazo[1,2-a]pyridin-3-yl-5-methyl-pyrimidin-2-yl)amino]-3-methoxy-phenyl]piperazin-1-yl]propane-1,3-diol], the IC50 is reported as 16 nM. With COc1cc(C2CN(C(C)=O)C2)ccc1Nc1ncc(Cl)c(-c2cnc3ccccn23)n1 [Example 277, 1-[3-[4-[(5-chloro-4-imidazo[1,2-a]pyridin-3-yl-pyrimidin-2-yl)amino]-3-methoxy-phenyl]azetidin-1-yl]ethanone] the IC50 was 16 nM. COc1cc2c(cc1Nc1ncc(Cl)c(-c3cnn4ccccc34)n1)N(C(=O)CN(C)C)CC2 [Example 157, 1-[6-[(5-chloro-4-pyrazolo[1,5-a]pyridin-3-yl-pyrimidin-2-yl)amino]-5-methoxy-indolin-1-yl]-2-(dimethylamino)ethanone] gave an IC50 of 1 nM. With COc1cc(N2CC[C@@H](N(C)C)C2)ccc1Nc1ncc(F)c(-c2cnc3ccccn23)n1 [Example 76, N-[4-[(3R)-3-dimethylaminopyrrolidin-1-yl]-2-methoxy-phenyl]-5-fluoro-4-imidazo[1,2-a]pyridin-3-yl-pyrimidin-2-amine] the IC50 was 33 nM. COc1cc(N2CCN(C(=O)N3CCOCC3)CC2)ccc1Nc1ncc(Cl)c(-c2cnc3ccccn23)n1 [Example 46, [4-[4-[(5-chloro-4-imidazo[1,2-a]pyridin-3-yl-pyrimidin-2-yl)amino]-3-methoxy-phenyl]piperazin-1-yl]-morpholino-methanone] was tested, and the IC50 was 13 nM.
